The results in this text go back to US20250195487A1, “FORMULATIONS OF A CSF-1R INHIBITOR” (Deciphera Pharmaceuticals, LLC, priority 2023, published 2025).

Where a name gives a salt, the structure may show the parent alone.

Data set [1] in a line: Solubility determination in deionized water. In kind it is physicochemical. The conditions noted are these: ultrasonic treatment; for Solubility S: about 2 mg sample.
Data set [2] can be described thus: Hygroscopic behavior test by dynamic vapor sorption (DVS). The conditions noted are these: for hygroscopic property, in words: dependence on relative humidity; for hygroscopic weight gain: 25° C., DVS. In kind it is physicochemical. The source says:
The experimental method for characterizing the acid salt of the crystalline compound of the formula (I) by using dynamic vapor sorption (DVS) comprises the steps of putting a small amount of powder of the acid salt of the crystalline compound of the formula (I) in a precision sample tray in coordination with the instrument, and then sending to the instrument for testing after loading the samples. The model of all the instruments used in the dynamic vapor sorption in the present invention is DVS Intrinsic, the experimental parameters are set to that nitrogen is used as the carrier gas, the constant temperature is set to 25° C., the mass percent change rate per unit time (dm/dt) is equal to 0.01%/min as the determination criteria to achieve balance, the program humidity change cycle is set to that the initial relative humidity is 0%, the relative humidity at the end point is 90%, cycle is set to twice, and every 10% R.H. changes a step.
The inventors of the present invention measured the hygroscopic weight gain results (hygroscopic weight gain/pre-hygroscopic weight*100%) of various crystalline forms at each relative humidity by using the dynamic vapor sorption method, the hygroscopicity of different crystalline compounds was evaluated, and the results obtained were as follows: […]

`Cc1nc(NC(=O)N2CCC(C)(C)C2=O)ccc1Oc1ccnc(-c2cnn(C)c2)c1` [Citrate crystalline form I]: in data set [1], the “Dissolution Phenomenon” value was “Settled solution” and the “Solubility S” value is reported as “S > 20 mg/mL”.
As for `Cc1nc(NC(=O)N2CCC(C)(C)C2=O)ccc1Oc1ccnc(-c2cnn(C)c2)c1` [Free compound], in data set [1], the “Dissolution Phenomenon” value is “Non-settling” and the “Solubility S” value was “S < 1.5 mg/mL”.
For the compound `Cc1nc(NC(=O)N2CCC(C)(C)C2=O)ccc1Oc1ccnc(-c2cnn(C)c2)c1` [Fumarate crystalline form I], in data set [1], the “Dissolution Phenomenon” value is “Settled solution” and the “Solubility S” value is listed as “S > 20 mg/mL”.
For `Cc1nc(NC(=O)N2CCC(C)(C)C2=O)ccc1Oc1ccnc(-c2cnn(C)c2)c1` [Hydrochloride crystalline form I], the “hygroscopic property, in words” value in data set [2] is on record as “when the relative humidity was increased to 90%, the hygroscopicity of the crystal was increased significantly”. Further, the hygroscopic weight gain is listed as 0.00% in data set [2] (relative humidity 0.0 %); 0.13% in data set [2] (relative humidity 10.0 %); 0.24% in data set [2] (relative humidity 20.0 %); 0.34% in data set [2] (relative humidity 30.0 %); 0.42% in data set [2] (relative humidity 40.0 %); 0.52% in data set [2] (relative humidity 50.0 %). Also, the hygroscopic weight gain in data set [2] (relative humidity 60.0 %) amounted to 0.63%; in data set [2] (relative humidity 70.0 %), 0.81%; in data set [2] (relative humidity 80.0 %) it was 1.37%; in data set [2] (relative humidity 90.0 %), 19.40%. For the same compound, the “hygroscopic weight gain of the crystal” value in data set [2] (relative humidity less than 80%) is “less than 1%”. In addition, the “Dissolution Phenomenon” value in data set [1] is “Settled solution”. In addition, in data set [1], the “Solubility S” value was “S > 20 mg/mL”.
`Cc1nc(NC(=O)N2CCC(C)(C)C2=O)ccc1Oc1ccnc(-c2cnn(C)c2)c1` [Malate crystalline form I]: in data set [1], the “Dissolution Phenomenon” value was “Settled solution” and the “Solubility S” value is recorded as “S > 20 mg/mL”.
For the compound `Cc1nc(NC(=O)N2CCC(C)(C)C2=O)ccc1Oc1ccnc(-c2cnn(C)c2)c1` [Mesylate crystalline form II], the “hygroscopic property, in words” value in data set [2] is on record as “significantly increased when the relative humidity is increased to 70%”. The hygroscopic weight gain in data set [2] (relative humidity 0.0 %) was found to be 0.00%; in data set [2] (relative humidity 10.0 %), 0.11%; in data set [2] (relative humidity 20.0 %) it was 0.18%; in data set [2] (relative humidity 30.0 %), 0.20%; in data set [2] (relative humidity 40.0 %), 0.24%; in data set [2] (relative humidity 50.0 %) it was 0.31%. Also, the hygroscopic weight gain is given as 0.88% in data set [2] (relative humidity 60.0 %), 8.93% in data set [2] (relative humidity 70.0 %), 12.44% in data set [2] (relative humidity 80.0 %) and 23.15% in data set [2] (relative humidity 90.0 %). The “Dissolution Phenomenon” value in data set [1] is recorded as “Settled solution”. For the same compound, the “Solubility S” value in data set [1] is on record as “S > 20 mg/mL”.
Take `Cc1nc(NC(=O)N2CCC(C)(C)C2=O)ccc1Oc1ccnc(-c2cnn(C)c2)c1` [Phosphate crystalline form I]: the “hygroscopic property, in words” value in data set [2] was “remains less hygroscopicity regardless of the ambient relative humidity”. The hygroscopic weight gain in data set [2] (relative humidity 0.0 %) is 0.02%; in data set [2] (relative humidity 10.0 %) it was 1.19%; in data set [2] (relative humidity 20.0 %) it was 1.86%; in data set [2] (relative humidity 30.0 %), 2.32%; in data set [2] (relative humidity 40.0 %), 2.78%; in data set [2] (relative humidity 50.0 %), 3.37%. The hygroscopic weight gain in data set [2] (relative humidity 60.0 %) came to 3.97%; in data set [2] (relative humidity 70.0 %), 4.66%; in data set [2] (relative humidity 80.0 %), 5.46%; in data set [2] (relative humidity 90.0 %), 6.383%. The “Dissolution Phenomenon” value in data set [1] is on record as “Settled solution”. The “Solubility S” value in data set [1] is “S > 20 mg/mL”.
As to `Cc1nc(NC(=O)N2CCC(C)(C)C2=O)ccc1Oc1ccnc(-c2cnn(C)c2)c1` [Sulfate crystalline form I], in data set [1], the “Dissolution Phenomenon” value is on record as “Settled solution” and the “Solubility S” value was “S > 20 mg/mL”.
As to `Cc1nc(NC(=O)N2CCC(C)(C)C2=O)ccc1Oc1ccnc(-c2cnn(C)c2)c1` [Tartrate crystalline form I], the “hygroscopic property, in words” value in data set [2] is “a good linear relationship is formed”. Besides, the hygroscopic weight gain came out at 0.00% in data set [2] (relative humidity 0.0 %); 0.83% in data set [2] (relative humidity 10.0 %); 1.79% in data set [2] (relative humidity 20.0 %); 2.42% in data set [2] (relative humidity 30.0 %); 2.88% in data set [2] (relative humidity 40.0 %); 3.32% in data set [2] (relative humidity 50.0 %). The hygroscopic weight gain in data set [2] (relative humidity 60.0 %) is recorded as 3.77%; in data set [2] (relative humidity 70.0 %), 4.44%; in data set [2] (relative humidity 80.0 %), 5.17%; in data set [2] (relative humidity 90.0 %), 10.61%. Moreover, in data set [1], the “Dissolution Phenomenon” value is “Settled solution”. Besides, in data set [1], the “Solubility S” value is reported as “S > 20 mg/mL”.
